Patent US20080096850A1 (priority 2001, published 2008)

Columns and labels:
Type in all cases: cell-based, Staphylococcus aureus
[1] = test system: TSST-1 production by S. aureus FRI-1169
[2] = test system: TSST-1 production by S. aureus FRI-1187
S. aureus (MN8) = test system: S. aureus (MN8)
[3] = test system: TSST-1 production by S. aureus (MN8)

Compound | ELISA: TSST-1 ng/OD unit [1] [ng/OD unit] | Reduction of Toxin % [1] [%] | ELISA: TSST-1 ng/OD unit [2] [ng/OD unit] | Reduction of Toxin % [2] [%] | CFU/mL (S. aureus (MN8)) [CFU/mL] | Optical Density 600 nm (S. aureus (MN8)) | ELISA: TSST-1 ng/OD unit [3] [ng/OD unit]
Oc1cc(Cl)ccc1Oc1ccc(Cl)cc1Cl [Triclosan, triclosan] | 40 | 96 | 95 | 86 | – | – | –
4-hydroxydiphenyl methane [4-Hydroxydiphenyl-methane] | – | – | – | – | 1.1E+08 | 0.581 | 785
Oc1c(Cl)cc(Cl)c(Cl)c1Cc1c(O)c(Cl)cc(Cl)c1Cl [Hexachlorophene, hexachlorophene] | – | – | – | – | – | – | 330
